Reference: patent US11634390B2, “Agricultural chemicals” (GLOBACHEM NV, priority 2016, dated 2023)

Key:
Format in all cases: in vivo
Stellaria media = assay: Herbicidal screen, post-emergence spray of seedlings in pots: Chickweed; settings: Stellaria media, post-emergence, 240 h, assessed 10 days after treatment, read-out: percentage increase in necrosis relative to the control
Method: (§1) Compounds were screened at four concentrations (100, 50, 25 and 12.5 g/ha) against four weed species (Stellaria media—Chickweed; Abutilon theophrasti—velvetleaf; Amaranthus retroflexus—common amaranthus; Echinochloa crus-galli—Barnyard grass) and maize as a crop species. Seed were sown in 12.5 cm diameter pots (20 per pot for the weed species and 5 for maize). Seedlings were sprayed with 2 ml of compound two weeks after sowing, with 2 ml water used as the control. Each treatment was replicated three times. Plants were maintained at 20° C. and assessed 10 days after treatment. The assessment was based on the % plant in each pot showing growth. The data is presented in Table 1 in which d represents no detected effect at this concentration; c represents a percentage increase in necrosis relative to the control of 0.1-50; b represents a percentage increase in necrosis of 50-80; and a represents a percentage increase in necrosis of 80-100.

Abutilon theophrasti = assay: Herbicidal screen, post-emergence spray of seedlings in pots: velvetleaf; settings: Abutilon theophrasti, post-emergence, 240 h, assessed 10 days after treatment, read-out: percentage increase in necrosis relative to the control
Method: as §1

Amaranthus retroflexus = assay: Herbicidal screen, post-emergence spray of seedlings in pots: common amaranthus; settings: Amaranthus retroflexus, post-emergence, 240 h, assessed 10 days after treatment, read-out: percentage increase in necrosis relative to the control
Method: as §1

four weed species = assay: Herbicidal screen, summary across the four weed species; settings: summary in words, 12.5-100 g/ha
Method: as §1

Echinochloa crus-galli = assay: Herbicidal screen, post-emergence spray of seedlings in pots: Barnyard grass; settings: Echinochloa crus-galli, post-emergence, 240 h, assessed 10 days after treatment, read-out: percentage increase in necrosis relative to the control
Method: as §1

maize = assay: Herbicidal screen, post-emergence spray of seedlings in pots: crop species; settings: Zea mays, post-emergence, 240 h, assessed 10 days after treatment, read-out: percentage increase in necrosis relative to the control
Method: as §1

Row | SMILES | pest or weed control at 12.5 g/ha (Stellaria media) [%] | pest or weed control at 25 g/ha (Stellaria media) [%] | pest or weed control at 50 g/ha (Stellaria media) [%] | pest or weed control at 100 g/ha (Stellaria media) [%] | pest or weed control at 12.5 g/ha (Abutilon theophrasti) [%] | pest or weed control at 25 g/ha (Abutilon theophrasti) [%] | pest or weed control at 50 g/ha (Abutilon theophrasti) [%] | pest or weed control at 100 g/ha (Abutilon theophrasti) [%] | pest or weed control at 12.5 g/ha (Amaranthus retroflexus) [%] | pest or weed control at 25 g/ha (Amaranthus retroflexus) [%] | pest or weed control at 50 g/ha (Amaranthus retroflexus) [%] | pest or weed control at 100 g/ha (Amaranthus retroflexus) [%] | herbicidal activity against the weed species (four weed species) | pest or weed control at 12.5 g/ha (Echinochloa crus-galli) [%] | pest or weed control at 25 g/ha (Echinochloa crus-galli) [%] | pest or weed control at 50 g/ha (Echinochloa crus-galli) [%] | pest or weed control at 100 g/ha (Echinochloa crus-galli) [%] | plant injury at 12.5 g/ha (maize) [%] | plant injury at 25 g/ha (maize) [%] | plant injury at 50 g/ha (maize) [%] | further results
1 | Cn1c(C(F)(F)F)cc(=O)n(-c2cc(C(=O)NS(=O)(=O)C3CCCCC3)c(Cl)cc2F)c1=O [Example 14, 2-Chloro-N-(cyclohexylsulfonyl)-4-fluoro-5-(3-methyl-2,6-dioxo-4-(trifluoromethyl)-3,6-dihydropyrimidin-1(2H)-yl)benzamide] | 0.1 to 50 | 0.1 to 50 | 50 to 80 | 80 to 100 | 50 to 80 | 50 to 80 | 80 to 100 | 80 to 100 | 80 to 100 | 80 to 100 | 80 to 100 | 80 to 100 | good activity across several of the weed species | 0.1 to 50 | 0.1 to 50 | 0.1 to 50 | 0.1 to 50 | 0.1 to 50 | 0.1 to 50 | 0.1 to 50 | plant injury at 100 g/ha (maize): 0.1 to 50%
2 | Cn1c(C(F)(F)F)cc(=O)n(-c2cc(C(=O)NS(=O)(=O)C3(F)CC3)c(Cl)cc2F)c1=O [Example 16, 2-Chloro-4-fluoro-N-((1-fluorocyclopropyl)sulfonyl)-5-(3-methyl-2,6-dioxo-4-(trifluoromethyl)-3,6-dihydropyrimidin-1(2H)-yl)benzamide] | 0.1 to 50 | 0.1 to 50 | 0.1 to 50 | 80 to 100 | 0.1 to 50 | 0.1 to 50 | 50 to 80 | 80 to 100 | 0.1 to 50 | 0.1 to 50 | 80 to 100 | 80 to 100 | good activity across several of the weed species | 0.1 to 50 | 0.1 to 50 | 50 to 80 | 50 to 80 | 0.1 to 50 | 0.1 to 50 | 0.1 to 50 | plant injury at 100 g/ha (maize): 0.1 to 50%
3 | CCC1(S(=O)(=O)NC(=O)c2cc(-n3c(=O)cc(C(F)(F)F)n(C)c3=O)c(F)cc2Cl)CC1 [Example 17, 2-Chloro-N-((1-ethylcyclopropyl)sulfonyl)-4-fluoro-5-(3-methyl-2,6-dioxo-4-(trifluoromethyl)-3,6-dihydropyrimidin-1(2H)-yl)benzamide] | 0.1 to 50 | 50 to 80 | 50 to 80 | 80 to 100 | 0.1 to 50 | 0.1 to 50 | 50 to 80 | 80 to 100 | 0.1 to 50 | 50 to 80 | 80 to 100 | 80 to 100 | good activity across several of the weed species | 0.1 to 50 | 50 to 80 | 50 to 80 | 50 to 80 | 0.1 to 50 | 0.1 to 50 | 0.1 to 50 | plant injury at 100 g/ha (maize): 0.1 to 50%
